pIC50: −log10 of the molar value. Square brackets hold non-standard residues; d marks the D form. Peptide text beside a SMILES is read from it. * marks the point of attachment. Leu(ol) = CC(C)C[C@H](N)CO; Boc = CC(C)(C)OC(=O)*
Target: T1, Renin (Homo sapiens, UniProt P00797)
T1 sequence (P00797 whole entry): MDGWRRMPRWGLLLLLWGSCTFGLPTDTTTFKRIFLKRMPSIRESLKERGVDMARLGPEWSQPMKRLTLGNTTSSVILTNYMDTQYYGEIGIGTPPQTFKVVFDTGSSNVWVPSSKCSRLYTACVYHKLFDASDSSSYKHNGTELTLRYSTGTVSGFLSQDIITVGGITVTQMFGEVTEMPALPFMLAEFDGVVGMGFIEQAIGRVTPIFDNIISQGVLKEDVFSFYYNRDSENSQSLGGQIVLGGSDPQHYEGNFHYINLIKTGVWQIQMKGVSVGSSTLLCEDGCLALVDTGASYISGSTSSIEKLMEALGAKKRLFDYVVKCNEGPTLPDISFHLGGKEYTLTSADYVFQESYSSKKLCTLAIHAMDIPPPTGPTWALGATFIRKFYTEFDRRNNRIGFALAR
Experiment: Compound was evaluated for inhibitory activity against renin
Conditions: read-out: I50

| pIC50 | SMILES |
| --- | --- |
| 4.70 | CC(C)C[C@@H](CO)C(=O)N[C@H](Cc1c[nH]cn1)C(=O)N[C@H](Cc1ccccc1)C(=O)NCC(C)(C)C |
| 2.92 | CC(C)C[C@@H](CO)NC(=O)[C@H](Cc1c[nH]cn1)C(=O)N[C@H](Cc1ccccc1)C(=O)NCC(C)(C)C |
| 4.10 | CC(C)C[C@H](CO)C(=O)N[C@H](Cc1c[nH]cn1)C(=O)N[C@H](Cc1ccccc1)C(=O)NCC(C)(C)C |
| 4.80 | CC(C)C[C@@H](CO)NC(=O)[C@H](Cc1cnc[nH]1)NC(=O)[C@H](Cc1ccccc1)NC(=O)OC(C)(C)C (Boc-Phe-His-[Leu(ol)]) |
